Measurements from PMC6934184, “Selective DNA-PKcs inhibition extends the therapeutic index of localized radiotherapy and chemotherapy” (The Journal of Clinical Investigation, 2019).

Target: T1, ABL1 (Homo sapiens, UniProt P00519)
T1 construct: purchased Thermo Fisher Scientific (Life Technologies) SelectScreen
Experiment: SelectScreen Z'LYTE
Format: biochemical
Method: The in vitro kinase selectivity of NU5455 was determined using the SelectScreen Broad Assay Panel (Thermo Fisher Scientific) involving activity and binding assays (Supplemental Table 1). […] Class IA PI3Ks were measured using the p85α subunit.
Kinase [ATP] % Assay Kinase [ATP] % Assay Kinase [ATP] % Assay Kinase [ATP] % Assay
DNA-PK Km app 98.3 Z LATS2 n/a 4.7 L KIT D820E n/a 1.3 L GSK3B (GSK3 beta) Km app -2.5 Z
PIK3C3 (hVPS34) Km app 85.9 A PRKCZ (PKC zeta) Km app 4.7 Z GRK1 n/a 1.3 L BMPR2 n/a -2.5 L
PIK3C2B (PI3K-C2 beta) 10 28.9 A FGFR1 Km app 4.7 Z BRSK2 n/a 1.2 L CDC42 BPB (MRCKB) Km app -2.5 Z
SNF1LK2 Km app 26.6 Z MINK1 Km app 4.6 Z NUAK1 (ARK5) Km app 1.2 A AMPK (A2/B2/G2) n/a -2.6 L
HCK Km app 18.0 Z CSF1R (FMS) Km app 4.3 Z CDK9/cyclin K n/a 1.0 L PRKG1 Km app -2.7 Z
NEK2 Km app 17.8 Z CSNK1G3 (CK1 gamma 3) Km app 4.2 Z NUAK2 n/a 1.0 L KIT T670E n/a -2.8 L
ALK Km app 17.3 Z STK32C (YANK3) n/a 4.2 L CDK2/cyclin O n/a 0.9 L ERBB4 (HER4) Km app -2.8 Z
FGFR3 K650M n/a 16.5 L STK22D (TSSK1) Km app 4.2 Z CAMKK2 (CaMKK beta) n/a 0.9 L PLK4 n/a -2.8 L
SIK3 n/a 16.1 L TAOK3 (JIK) n/a 4.2 L FGFR3 Km app 0.9 Z GRK7 Km app -3.0 Z
LYN A Km app 15.2 Z RPS6KA4 (MSK2) Km app 4.2 Z ULK2 n/a 0.9 L MAPKAPK2 Km app -3.1 Z
BMPR1B (ALK6) n/a 14.5 L PTK2B (FAK2) Km app 4.2 Z KIT D816V n/a 0.9 L FGFR4 Km app -3.1 Z
INSRR (IRR) Km app 14.1 Z CLK2 Km app 4.1 Z CAMK1 (CaMK1) 10 0.8 A CASK n/a -3.1 L
PLK2 Km app 14.1 Z STK24 (MST3) Km app 4.1 Z PTK6 (Brk) Km app 0.7 Z GRK5 Km app -3.2 Z
PRKACA (PKA) Km app 14.0 Z CAMK1D (CaMKI delta) Km app 4.1 Z CAMK2B (CaMKII beta) Km app 0.7 Z EGFR (ErbB1) T790M Km app -3.3 Z
EIF2AK2 (PKR) n/a 13.3 L INSR Km app 4.1 Z ACVR1 (ALK2) n/a 0.7 L PAK4 Km app -3.3 Z
PRKX Km app 12.5 Z IRAK1 Km app 4.0 A ABL1 H396P n/a 0.6 L DAPK3 (ZIPK) Km app -3.4 Z
FGR Km app 12.1 Z SRC N1 Km app 3.9 Z MERTK (cMER) A708S n/a 0.6 L RET M918T n/a -3.5 L
CLK1 Km app 11.7 Z SRPK2 Km app 3.9 Z MAPKAPK5 (PRAK) Km app 0.6 Z PRKCQ (PKC theta) Km app -3.7 Z
MARK3 Km app 11.4 Z RPS6KA6 (RSK4) Km app 3.8 Z AKT1 (PKB alpha) Km app 0.5 Z CAMKK1 (CAMKKA) n/a -3.8 L
PDGFRB (PDGFR beta) Km app 11.0 Z GRK6 Km app 3.7 Z NTRK3 (TRKC) Km app 0.4 Z FLT3 D835Y Km app -3.9 Z
PRKCN (PKD3) Km app 10.7 Z PKN1 (PRK1) Km app 3.6 Z ZAP70 Km app 0.3 Z ROCK2 Km app -4.1 Z
STK16 (PKL12) n/a 10.5 L MAP3K8 (COT) 100 3.5 Z CSNK1A1 (CK1 alpha 1) Km app 0.3 Z CHUK (IKK alpha) Km app -4.2 A
FES (FPS) Km app 10.4 Z FLT4 (VEGFR3) Km app 3.5 Z MYLK (MLCK) n/a 0.2 L AXL Km app -4.2 Z
ABL1 Km app 10.4 Z GRK4 Km app 3.5 Z MKNK2 (MNK2) n/a 0.2 L PIM2 Km app -4.3 Z
MUSK Km app 10.3 Z FRK (PTK5) Km app 3.4 Z AMPK (A1/B1/G3) n/a 0.2 L PAK1 Km app -4.4 Z
MAPK1 (ERK2) Km app 10.1 Z FYN A n/a 3.3 L MAP3K2 (MEKK2) n/a 0.1 L BMPR1A (ALK3) n/a -4.4 L
BRAF 100 9.9 Z CDK1/cyclin A2 n/a 3.3 L CDK8/cyclin C n/a 0.1 L STK4 (MST1) Km app -4.4 Z
IGF1R Km app 9.7 Z KIT V559D T670I n/a 3.1 L MARK2 Km app 0.1 Z PRKCH (PKC eta) Km app -4.6 Z
MAPK14 (p38 alpha) Km app 9.7 Z SPHK2 10 3.1 A ICK n/a 0.0 L SGKL (SGK3) Km app -4.6 Z
LCK Km app 9.6 Z FGFR3 G697C n/a 3.1 L FGFR2 Km app 0.0 Z PI4KB (PI4K beta) Km app -4.7 A
MAPK11 (p38 beta) Km app 9.5 Z RIPK2 n/a 3.1 L AKT2 (PKB beta) Km app 0.0 Z PRKCE (PKC epsilon) Km app -4.9 Z
SRC Km app 9.5 Z PAK6 Km app 3.0 Z EPHB2 Km app -0.1 Z PHKG1 Km app -5.0 Z
CHEK1 (CHK1) Km app 9.3 Z LYN B Km app 3.0 Z TGFBR2 n/a -0.1 L PDGFRA D842V Km app -5.0 Z
CAMK2D (CaMKII delta) Km app 9.3 Z DAPK2 n/a 2.9 L TEK (Tie2) Km app -0.1 Z PRKG2 (PKG2) Km app -5.1 Z
PLK1 Km app 9.2 Z EPHA4 Km app 2.9 Z AURKA (Aurora A) Km app -0.1 Z TYRO3 (RSE) Km app -5.1 Z
RET Y791F Km app 9.2 Z PIK3CG (p110 gamma) Km app 2.9 A KIT D816H n/a -0.2 L TAOK2 (TAO1) Km app -5.1 Z
FLT3 Km app 9.1 Z HIPK1 (Myak) Km app 2.8 Z KIT N822K n/a -0.2 L EPHB4 Km app -5.3 Z
MAPK10 (JNK3) 100 9.0 Z ADRBK2 (GRK3) Km app 2.8 Z PRKACG (PRKAC gamma) n/a -0.2 L AURKC (Aurora C) Km app -5.4 Z
CSNK2A2 (CK2 alpha 2) Km app 8.7 Z STK17B (DRAK2) n/a 2.7 L TEK (TIE2) Y1108F n/a -0.3 L JAK1 Km app -5.7 Z […]

T1 sequence (P00519 whole entry): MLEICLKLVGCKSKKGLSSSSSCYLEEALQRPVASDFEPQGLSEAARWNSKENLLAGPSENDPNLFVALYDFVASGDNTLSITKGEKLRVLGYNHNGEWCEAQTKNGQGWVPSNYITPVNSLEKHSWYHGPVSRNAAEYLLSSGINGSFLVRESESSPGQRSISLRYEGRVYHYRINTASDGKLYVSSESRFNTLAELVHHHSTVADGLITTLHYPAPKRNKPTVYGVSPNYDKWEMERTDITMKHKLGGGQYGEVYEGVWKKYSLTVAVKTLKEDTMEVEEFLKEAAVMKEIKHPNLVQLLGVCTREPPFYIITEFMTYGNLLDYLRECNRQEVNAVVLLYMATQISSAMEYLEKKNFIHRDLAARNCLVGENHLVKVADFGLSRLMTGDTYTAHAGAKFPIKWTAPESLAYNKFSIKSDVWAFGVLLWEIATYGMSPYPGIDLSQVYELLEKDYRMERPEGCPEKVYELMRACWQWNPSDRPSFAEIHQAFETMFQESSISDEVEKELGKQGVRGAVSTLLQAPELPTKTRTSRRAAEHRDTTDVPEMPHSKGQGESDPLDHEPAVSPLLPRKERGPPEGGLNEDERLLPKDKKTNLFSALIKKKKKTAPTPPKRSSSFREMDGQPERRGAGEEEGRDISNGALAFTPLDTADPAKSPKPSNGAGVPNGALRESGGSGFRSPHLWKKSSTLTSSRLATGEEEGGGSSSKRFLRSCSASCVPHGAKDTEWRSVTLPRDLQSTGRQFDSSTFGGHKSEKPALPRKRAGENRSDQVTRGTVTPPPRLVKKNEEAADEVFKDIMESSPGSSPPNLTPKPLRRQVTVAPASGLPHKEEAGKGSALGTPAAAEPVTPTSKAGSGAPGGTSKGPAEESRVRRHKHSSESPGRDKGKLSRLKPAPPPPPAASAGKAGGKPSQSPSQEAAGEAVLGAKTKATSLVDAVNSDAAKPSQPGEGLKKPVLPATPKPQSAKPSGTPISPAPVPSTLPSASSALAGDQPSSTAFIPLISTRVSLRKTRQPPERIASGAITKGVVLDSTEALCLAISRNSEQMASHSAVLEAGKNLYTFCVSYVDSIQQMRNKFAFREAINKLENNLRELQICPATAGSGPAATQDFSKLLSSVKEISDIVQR

Structure (SMILES): CN(C(=O)CN1CCOCC1)c1ccc2sc3c(-c4cccc5c(=O)cc(N6CC7CCC(C6)O7)oc45)cccc3c2c1 [NU5455]
- inhibition at 1 µM: 10.4%
